Results: ChEMBL document CHEMBL1152136, “2-Trifluoroacetylthiophene oxadiazoles as potent and selective class II human histone deacetylase inhibitors” (Bioorg Med Chem Lett, 2008)

Key:
Histone deacetylase 4 = Histone deacetylase 4 (Homo sapiens, UniProt P56524); assay: Inhibition of His-tagged HDAC4 catalytic domain expressed in Escherichia coli
Histone deacetylase 1 = Histone deacetylase 1 (Homo sapiens, UniProt Q13547); assay: Inhibition of HDAC1
Histone deacetylase 3 = Histone deacetylase 3 (Homo sapiens, UniProt O15379); assay: Inhibition of HDAC3
Sequence of Histone deacetylase 3 (O15379 whole entry): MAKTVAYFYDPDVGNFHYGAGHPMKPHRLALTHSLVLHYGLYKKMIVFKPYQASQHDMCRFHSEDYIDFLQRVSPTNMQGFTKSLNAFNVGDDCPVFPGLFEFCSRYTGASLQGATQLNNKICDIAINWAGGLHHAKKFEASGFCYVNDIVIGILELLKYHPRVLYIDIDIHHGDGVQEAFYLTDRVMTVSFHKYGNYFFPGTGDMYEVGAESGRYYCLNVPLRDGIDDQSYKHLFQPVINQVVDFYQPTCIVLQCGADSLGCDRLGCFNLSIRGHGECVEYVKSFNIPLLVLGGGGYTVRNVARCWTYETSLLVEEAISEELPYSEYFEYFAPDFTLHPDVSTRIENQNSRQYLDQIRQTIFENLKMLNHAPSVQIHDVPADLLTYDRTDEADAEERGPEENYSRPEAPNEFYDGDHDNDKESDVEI

[1] = target: T1, Protein deacetylase HDAC6 (Homo sapiens, UniProt Q9UBN7); assay: Inhibition of HDAC6
T1 sequence (Q9UBN7 whole entry): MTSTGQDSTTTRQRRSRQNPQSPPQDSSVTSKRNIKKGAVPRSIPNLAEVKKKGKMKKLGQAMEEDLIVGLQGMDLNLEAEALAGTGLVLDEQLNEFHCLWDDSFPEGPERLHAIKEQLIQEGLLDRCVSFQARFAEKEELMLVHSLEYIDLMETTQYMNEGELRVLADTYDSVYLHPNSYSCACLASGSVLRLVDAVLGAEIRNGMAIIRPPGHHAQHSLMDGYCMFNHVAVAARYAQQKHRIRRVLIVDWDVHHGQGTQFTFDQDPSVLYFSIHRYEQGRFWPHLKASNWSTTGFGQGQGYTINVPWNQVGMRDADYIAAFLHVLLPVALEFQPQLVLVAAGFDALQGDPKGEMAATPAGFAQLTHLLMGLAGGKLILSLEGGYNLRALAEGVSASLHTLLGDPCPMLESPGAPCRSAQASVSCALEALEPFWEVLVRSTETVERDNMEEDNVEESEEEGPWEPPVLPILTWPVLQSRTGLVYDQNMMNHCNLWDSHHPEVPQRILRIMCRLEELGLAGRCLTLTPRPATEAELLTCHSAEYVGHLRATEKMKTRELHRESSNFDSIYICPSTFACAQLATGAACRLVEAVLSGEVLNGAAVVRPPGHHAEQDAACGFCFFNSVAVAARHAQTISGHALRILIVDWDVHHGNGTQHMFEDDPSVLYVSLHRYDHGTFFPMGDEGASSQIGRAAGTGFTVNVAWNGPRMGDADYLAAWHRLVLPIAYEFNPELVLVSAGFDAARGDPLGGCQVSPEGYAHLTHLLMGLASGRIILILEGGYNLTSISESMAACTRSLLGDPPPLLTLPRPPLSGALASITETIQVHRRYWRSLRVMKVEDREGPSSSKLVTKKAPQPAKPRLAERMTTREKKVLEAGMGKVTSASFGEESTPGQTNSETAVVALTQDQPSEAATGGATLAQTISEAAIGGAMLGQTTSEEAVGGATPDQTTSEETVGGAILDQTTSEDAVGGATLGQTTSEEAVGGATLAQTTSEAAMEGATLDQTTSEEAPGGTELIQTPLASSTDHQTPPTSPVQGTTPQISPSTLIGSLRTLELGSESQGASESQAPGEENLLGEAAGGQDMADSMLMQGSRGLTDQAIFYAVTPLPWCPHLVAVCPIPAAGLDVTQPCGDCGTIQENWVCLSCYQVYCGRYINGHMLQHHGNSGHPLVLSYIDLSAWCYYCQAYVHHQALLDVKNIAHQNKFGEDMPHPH

[2] = Metabolic stability in S9 fraction of human HCT116 cells assessed as half life in presence of NADPH and regenerating system; type: ADME, cell-based, HCT-116
[3] = Selectivity for His-tagged HDAC4 catalytic domain over HDAC1
[4] = Metabolic stability in human HCT116 cells assessed as half life at 5 uM in presence of 10% FBS; type: ADME, cell-based, HCT-116
[5] = target: T1, Protein deacetylase HDAC6; assay: Inhibition of HDAC6 in human HCT116 cells assessed as inhibition of alpha-tubulin deacetylation; type: cell-based, HCT-116

Sequence of Histone deacetylase 1 (Q13547 whole entry): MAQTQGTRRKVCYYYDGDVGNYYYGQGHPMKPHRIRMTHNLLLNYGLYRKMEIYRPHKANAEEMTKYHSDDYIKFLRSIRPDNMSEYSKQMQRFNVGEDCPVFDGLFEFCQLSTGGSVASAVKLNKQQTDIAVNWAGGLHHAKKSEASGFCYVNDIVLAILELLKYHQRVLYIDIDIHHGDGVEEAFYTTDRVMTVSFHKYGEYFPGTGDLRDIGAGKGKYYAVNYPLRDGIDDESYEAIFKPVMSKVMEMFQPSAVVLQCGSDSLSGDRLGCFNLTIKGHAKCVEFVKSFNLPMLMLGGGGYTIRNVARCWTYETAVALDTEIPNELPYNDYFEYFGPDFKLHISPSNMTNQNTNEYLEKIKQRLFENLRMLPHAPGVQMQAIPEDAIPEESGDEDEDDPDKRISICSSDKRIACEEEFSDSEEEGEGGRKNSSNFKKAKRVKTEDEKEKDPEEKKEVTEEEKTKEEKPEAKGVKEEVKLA
Sequence of Histone deacetylase 4 (P56524 whole entry, the tested form may be a part): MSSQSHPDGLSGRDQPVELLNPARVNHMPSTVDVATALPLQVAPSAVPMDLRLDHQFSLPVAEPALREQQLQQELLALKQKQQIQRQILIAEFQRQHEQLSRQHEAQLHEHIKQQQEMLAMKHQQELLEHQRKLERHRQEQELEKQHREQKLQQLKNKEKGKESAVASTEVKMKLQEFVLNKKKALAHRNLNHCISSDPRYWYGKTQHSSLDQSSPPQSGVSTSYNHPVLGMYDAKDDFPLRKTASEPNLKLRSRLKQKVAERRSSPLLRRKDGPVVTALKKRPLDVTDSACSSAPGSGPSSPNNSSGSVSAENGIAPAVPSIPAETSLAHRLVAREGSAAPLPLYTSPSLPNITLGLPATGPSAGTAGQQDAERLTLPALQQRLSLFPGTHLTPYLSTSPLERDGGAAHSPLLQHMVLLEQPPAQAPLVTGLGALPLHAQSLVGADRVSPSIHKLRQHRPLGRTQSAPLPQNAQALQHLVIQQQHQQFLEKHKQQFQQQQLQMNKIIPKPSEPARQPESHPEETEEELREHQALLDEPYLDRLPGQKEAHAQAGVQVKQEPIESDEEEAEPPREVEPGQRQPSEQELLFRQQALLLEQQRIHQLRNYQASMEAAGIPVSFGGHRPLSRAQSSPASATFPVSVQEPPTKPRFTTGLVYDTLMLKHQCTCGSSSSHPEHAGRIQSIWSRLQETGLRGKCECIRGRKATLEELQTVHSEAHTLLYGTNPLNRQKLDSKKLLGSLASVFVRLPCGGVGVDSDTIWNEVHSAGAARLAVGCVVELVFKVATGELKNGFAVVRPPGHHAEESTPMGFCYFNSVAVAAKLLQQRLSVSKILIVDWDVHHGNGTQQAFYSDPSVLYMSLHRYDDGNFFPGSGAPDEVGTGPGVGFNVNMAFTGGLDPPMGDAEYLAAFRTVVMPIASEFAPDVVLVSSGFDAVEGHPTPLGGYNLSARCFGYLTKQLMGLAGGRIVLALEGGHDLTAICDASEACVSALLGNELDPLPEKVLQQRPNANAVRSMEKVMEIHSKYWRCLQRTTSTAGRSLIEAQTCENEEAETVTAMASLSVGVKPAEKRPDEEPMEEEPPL

Row | Compound | IC50 (Histone deacetylase 4) [nM] | IC50 (Histone deacetylase 1) [nM] | IC50 (Histone deacetylase 3) [nM] | IC50 [1] [nM] | half-life [2] [min] | Ratio IC50 [3] | half-life at 5 µM [4] [min] | IC50 [5] [nM]
1 | O=C(c1ccc(-c2nc(-c3cccc(C(F)(F)F)c3)no2)s1)C(F)(F)F | 320 | 17500 | > 1000 | 2450 |  |  |  | 
2 | O=C(c1ccc(-c2nc(-c3ccccn3)no2)s1)C(F)(F)F | 90 | 2800 |  | 500 |  |  |  | 
3 | O=C(c1ccc(-c2nnc(-c3ccccc3)o2)s1)C(F)(F)F | 420 | 2970 | 500 | 330 |  |  |  | 
4 | O=C(c1ccc(-c2nc(-c3ccc(F)cc3F)no2)s1)C(F)(F)F | 120 | 4200 | > 1000 | 580 | > 120 |  |  | 
5 | CC(C)(C)c1ccc(-c2noc(-c3ccc(C(=O)C(F)(F)F)s3)n2)cc1 | > 2000 | 16600 | > 1000 | 3540 |  |  |  | 
6 | Cc1ccc(-c2noc(-c3ccc(C(=O)C(F)(F)F)s3)n2)cc1 | 110 | 6800 |  | 860 |  |  |  | 
7 | O=C(c1ccc(-c2nc(-c3ccncc3)no2)s1)C(F)(F)F | 590 | > 10000 |  | 570 |  |  |  | 
8 | O=C(c1ccc(-c2nc(-c3cccs3)no2)s1)C(F)(F)F | 95 | 2900 |  | 670 |  |  |  | 
9 | O=C(c1ccc(-c2nc(-c3cccnc3)no2)s1)C(F)(F)F | 70 | 2200 |  | 840 |  |  |  | 
10 | O=C(c1ccc(-c2nc(Cc3cccs3)no2)s1)C(F)(F)F | 15 | 990 | 630 | 170 | 35 | 70 |  | 
11 | O=C(Cc1noc(-c2ccc(C(=O)C(F)(F)F)s2)n1)N1CCCC1 | 60 | 5900 |  | 710 |  | > 75 |  | 
12 | O=C(c1ccc(-c2nc(CS(=O)(=O)Cc3ccc(F)cc3)no2)s1)C(F)(F)F | 60 | 6550 | > 1000 | 700 | 35 |  | 330 | 
13 | Cc1cccc(-c2noc(-c3ccc(C(=O)C(F)(F)F)s3)n2)c1 | 280 | 6540 | > 1000 | 680 |  |  |  | 
14 | CN(Cc1ccccc1)C(=O)c1ccc(C(=O)C(F)(F)F)s1 |  |  |  |  | 15 |  |  | 
15 | CS(=O)(=O)Cc1noc(-c2ccc(C(=O)C(F)(F)F)s2)n1 | 30 | 2470 | > 1000 | 320 | > 120 | > 70 | 780 | 640
16 | O=C(c1ccc(-c2nc(-c3ccccc3)no2)s1)C(F)(F)F | 110 | 7400 | > 1000 | 580 |  |  |  | 
17 | O=C(NCc1ccccc1)c1ccc(C(=O)C(F)(F)F)s1 | 243 | 467 | 520 | 370 |  |  |  | 
18 | CCNC(=O)c1ccc(C(=O)C(F)(F)F)s1 |  |  | > 10000 |  |  |  |  | 
19 | O=C(c1ccc(-c2nnc(-c3cccs3)o2)s1)C(F)(F)F | 450 | 2600 | 500 | 160 |  |  |  | 
20 | O=C(c1ccc(-c2nc(-c3ccc(Cl)cc3Cl)no2)s1)C(F)(F)F | 240 | > 5000 |  | 3000 |  |  |  | 
21 | O=C(c1ccc(-c2nc(COc3ccc(-c4nnco4)cc3)no2)s1)C(F)(F)F |  | 4800 |  |  | 18 |  |  | 
22 | O=C1COc2ccccc2N1Cc1noc(-c2ccc(C(=O)C(F)(F)F)s2)n1 | 15 | 1170 | > 1000 | 410 | 25 | > 75 |  | 
23 | Cc1noc(-c2ccc(C(=O)C(F)(F)F)s2)n1 | 75 | 7600 | 7100 | 650 | > 120 |  |  | 
24 | Cc1ccc(-c2nnc(-c3ccc(C(=O)C(F)(F)F)s3)o2)cc1 | 270 | 1800 | > 1000 | 600 |  |  |  | 
25 | CCCS(=O)(=O)Cc1noc(-c2ccc(C(=O)C(F)(F)F)s2)n1 | 30 | 2220 | > 1000 | 240 | 45 | > 70 | 720 | 500
26 | O=C(c1ccc(-c2nc(CS(=O)(=O)c3cccs3)no2)s1)C(F)(F)F | 35 | 3890 | > 1000 | 520 | 44 | > 100 | 360 | 
27 | O=C(c1ccc(-c2nc(-c3ccc(F)cc3)no2)s1)C(F)(F)F | 220 | 5900 | > 1000 | 270 |  |  |  | 
28 | O=C(c1ccc(-c2ncc(-c3ccccc3)s2)s1)C(F)(F)F | 1500 | > 10000 |  | 1350 |  |  |  | 
29 | O=C(c1ccc(-c2nc(-c3ccc(C(F)(F)F)cc3)no2)s1)C(F)(F)F | 200 | > 10000 |  | 11000 |  |  |  | 
